Consider two compounds from ChEMBL document CHEMBL3352200, “Thio-sugar motif of functional CARB-pharmacophore for antineoplastic activity. Part 2” (Bioorg Med Chem Lett, 2014).

Data set [1] concerns A549. Nature of the data set: Cytotoxicity against human A549 cells after 14 hrs by CCK-8 assay. In kind it is functional, cell-based. Conditions: A549, 14 h.
Data set [2] relates to HeLa. Nature of the data set: Cytotoxicity against human HeLa cells after 14 hrs by CCK-8 assay. It counts as functional, cell-based.
For data set [3], the system named is MCF7. As to the kind of experiment: Cytotoxicity against human MCF7 cells after 14 hrs by CCK-8 assay. It counts as functional, cell-based. Conditions: MCF7, 14 h. For orientation: Tetrazolium dyes change colour on reduction, which living cells bring about.
For data set [4], the system named is LoVo. Nature of the data set: Cytotoxicity against human LoVo cells after 14 hrs by CCK-8 assay. In kind it is functional, cell-based.
A short description of data set [5]: Cytotoxicity against human PNT2 cells at 8.6 to 2200 uM after 14 hrs by CCK-8 assay. It counts as cell-based. Conditions: pnt2, 14 h.
Data set [6] relates to LoVo. As to the kind of experiment: Induction of apoptosis in human LoVo cells assessed as viable cells at 34 uM after 4 hrs by FITC Annexin-V/propidium iodide staining-based flow cytometry (reference value: 79.50%). In kind it is functional. Conditions: read-out: Activity. Background: A flow cytometer gives signals particle by particle.
The subject of data set [7] is LoVo. Nature of the data set: Induction of apoptosis in human LoVo cells assessed as viable cells at 275 uM after 4 hrs by FITC Annexin-V/propidium iodide staining-based flow cytometry (reference value: 79.50%). It counts as functional. Conditions: read-out: Activity.
The subject of data set [8] is LoVo. Nature of the data set: Induction of apoptosis in human LoVo cells assessed as apoptotic cells at 34 uM after 4 hrs by FITC Annexin-V/propidium iodide staining-based flow cytometry (reference value: 20.50%). In kind it is functional.
The test system of data set [9] is LoVo. As to the kind of experiment: Induction of apoptosis in human LoVo cells assessed as apoptotic cells at 275 uM after 4 hrs by FITC Annexin-V/propidium iodide staining-based flow cytometry (reference value: 20.50%). It counts as functional.
Data set [10] has as its system A549. Nature of the data set: Induction of apoptosis in human A549 cells assessed as viable cells at 17 uM after 4 hrs by FITC Annexin-V/propidium iodide staining-based flow cytometry (reference value: 84.40%). In kind it is functional. Conditions: A549, 4 h, read-out: Activity.
Data set [11] relates to A549. Nature of the data set: Induction of apoptosis in human A549 cells assessed as viable cells at 137 uM after 4 hrs by FITC Annexin-V/propidium iodide staining-based flow cytometry (reference value: 84.40%). It counts as functional. Conditions: A549, 4 h, read-out: Activity.
Data set [12] has as its system A549. As to the kind of experiment: Induction of apoptosis in human A549 cells assessed as apoptotic cells at 17 uM after 4 hrs by FITC Annexin-V/propidium iodide staining-based flow cytometry (reference value: 15.60%). It counts as functional.
Data set [13] deals with A549. Nature of the data set: Induction of apoptosis in human A549 cells assessed as apoptotic cells at 137 uM after 4 hrs by FITC Annexin-V/propidium iodide staining-based flow cytometry (reference value: 15.60%). It counts as functional.
Data set [14] deals with MCF7. As to the kind of experiment: Induction of apoptosis in human MCF7 cells assessed as viable cells at 34 uM after 4 hrs by FITC Annexin-V/propidium iodide staining-based flow cytometry (reference value: 70.40%). In kind it is functional. Conditions: MCF7, 4 h, read-out: Activity.
The subject of data set [15] is MCF7. Nature of the data set: Induction of apoptosis in human MCF7 cells assessed as viable cells at 275 uM after 4 hrs by FITC Annexin-V/propidium iodide staining-based flow cytometry (reference value: 70.40%). It counts as functional. Conditions: MCF7, 4 h, read-out: Activity.
Data set [16] relates to MCF7. As to the kind of experiment: Induction of apoptosis in human MCF7 cells assessed as apoptotic cells at 34 uM after 4 hrs by FITC Annexin-V/propidium iodide staining-based flow cytometry (reference value: 29.60%). It counts as functional.
Data set [17] concerns MCF7. As to the kind of experiment: Induction of apoptosis in human MCF7 cells assessed as apoptotic cells at 275 uM after 4 hrs by FITC Annexin-V/propidium iodide staining-based flow cytometry (reference value: 29.60%). It counts as functional.
Data set [18] relates to HeLa. As to the kind of experiment: Induction of apoptosis in human HeLa cells assessed as viable cells at 17 uM after 4 hrs by FITC Annexin-V/propidium iodide staining-based flow cytometry (reference value: 87.00%). It counts as functional. Conditions: read-out: Activity.
In data set [19] the test system is HeLa. As to the kind of experiment: Induction of apoptosis in human HeLa cells assessed as viable cells at 137 uM after 4 hrs by FITC Annexin-V/propidium iodide staining-based flow cytometry (reference value: 87.00%). In kind it is functional. Conditions: read-out: Activity.
Data set [20] has as its system HeLa. Nature of the data set: Induction of apoptosis in human HeLa cells assessed as apoptotic cells at 17 uM after 4 hrs by FITC Annexin-V/propidium iodide staining-based flow cytometry (reference value: 13.00%). In kind it is functional.
Data set [21] concerns HeLa. Nature of the data set: Induction of apoptosis in human HeLa cells assessed as apoptotic cells at 137 uM after 4 hrs by FITC Annexin-V/propidium iodide staining-based flow cytometry (reference value: 13.00%). It counts as functional.
Data set [22] is described as follows: Lipophilicity, log P of the compound. It counts as physicochemical. Conditions: octanol/water.
Data set [23] has as its system LoVo. Nature of the data set: Induction of apoptosis in human LoVo cells assessed as viable cells at 17 uM after 4 hrs by FITC Annexin-V/propidium iodide staining-based flow cytometry (reference value: 79.50%). In kind it is functional. Conditions: read-out: Activity.
The test system of data set [24] is LoVo. As to the kind of experiment: Induction of apoptosis in human LoVo cells assessed as viable cells at 137 uM after 4 hrs by FITC Annexin-V/propidium iodide staining-based flow cytometry (reference value: 79.50%). In kind it is functional. Conditions: read-out: Activity.
Data set [25] relates to LoVo. Nature of the data set: Induction of apoptosis in human LoVo cells assessed as apoptotic cells at 17 uM after 4 hrs by FITC Annexin-V/propidium iodide staining-based flow cytometry (reference value: 20.50%). In kind it is functional.
Data set [26] deals with LoVo. Nature of the data set: Induction of apoptosis in human LoVo cells assessed as apoptotic cells at 137 uM after 4 hrs by FITC Annexin-V/propidium iodide staining-based flow cytometry (reference value: 20.50%). In kind it is functional.
Data set [27] relates to A549. As to the kind of experiment: Induction of apoptosis in human A549 cells assessed as viable cells at 8.6 uM after 4 hrs by FITC Annexin-V/propidium iodide staining-based flow cytometry (reference value: 84.40%). It counts as functional. Conditions: A549, 4 h, read-out: Activity.
Data set [28] concerns A549. As to the kind of experiment: Induction of apoptosis in human A549 cells assessed as viable cells at 69 uM after 4 hrs by FITC Annexin-V/propidium iodide staining-based flow cytometry (reference value: 84.40%). In kind it is functional. Conditions: A549, 4 h, read-out: Activity.
Data set [29] deals with A549. As to the kind of experiment: Induction of apoptosis in human A549 cells assessed as apoptotic cells at 8.6 uM after 4 hrs by FITC Annexin-V/propidium iodide staining-based flow cytometry (reference value: 15.60%). It counts as functional.
For data set [30], the system named is A549. As to the kind of experiment: Induction of apoptosis in human A549 cells assessed as apoptotic cells at 69 uM after 4 hrs by FITC Annexin-V/propidium iodide staining-based flow cytometry (reference value: 15.60%). It counts as functional.
Data set [31] has as its system MCF7. As to the kind of experiment: Induction of apoptosis in human MCF7 cells assessed as viable cells at 4.3 uM after 4 hrs by FITC Annexin-V/propidium iodide staining-based flow cytometry (reference value: 70.40%). It counts as functional. Conditions: MCF7, 4 h, read-out: Activity.
In data set [32] the test system is MCF7. Nature of the data set: Induction of apoptosis in human MCF7 cells assessed as apoptotic cells at 4.3 uM after 4 hrs by FITC Annexin-V/propidium iodide staining-based flow cytometry (reference value: 29.60%). In kind it is functional.
Data set [33] relates to HeLa. Nature of the data set: Induction of apoptosis in human HeLa cells assessed as viable cells at 8.6 uM after 4 hrs by FITC Annexin-V/propidium iodide staining-based flow cytometry (reference value: 87.00%). It counts as functional. Conditions: read-out: Activity.
Data set [34] relates to HeLa. As to the kind of experiment: Induction of apoptosis in human HeLa cells assessed as viable cells at 69 uM after 4 hrs by FITC Annexin-V/propidium iodide staining-based flow cytometry (reference value: 87.00%). In kind it is functional. Conditions: read-out: Activity.
For data set [35], the system named is HeLa. As to the kind of experiment: Induction of apoptosis in human HeLa cells assessed as apoptotic cells at 8.6 uM after 4 hrs by FITC Annexin-V/propidium iodide staining-based flow cytometry (reference value: 13.00%). It counts as functional.
The test system of data set [36] is HeLa. Nature of the data set: Induction of apoptosis in human HeLa cells assessed as apoptotic cells at 69 uM after 4 hrs by FITC Annexin-V/propidium iodide staining-based flow cytometry (reference value: 13.00%). It counts as functional.

One may read the IC50 as the concentration at which inhibition is half-maximal. In general, logP refers to the decadic logarithm of the partition coefficient of the neutral form, usually between octanol and water. A low value points to a more hydrophilic compound. For the compound `CC(=O)OC[C@H]1O[C@@H](S[C@H]2CC(=O)[C@@H]3OC[C@H]2O3)[C@H](OC(C)=O)[C@@H](OC(C)=O)[C@H]1OC(C)=O`, the IC50 worked out at 467 µM in data set [1], 676 µM in data set [2], 344 µM in data set [3] and 624 µM in data set [4]. In addition, the Activity in data set [5] turned out to be 10%; in data set [8], 34.9%; in data set [9] it was 30%; in data set [12] it was 29%; in data set [13], 21.9%; in [16], 42.2%. Further, the Activity in [17] is reported as 19.2%; in data set [20], 25.9%; in data set [21], 62.8%. The viability at 34 µM in data set [6] was found to be 65.1%; in [14], 57.8%. Besides, the figures for the viability at 275 µM in data set [7] and in [15] were 70% and 80.8%, respectively. Besides, the values for the viability at 17 µM in data set [10] and in data set [18] were 71% and 74.1%, respectively. The viability at 137 µM amounted to 78.1% in [11] and 37.2% in [19]. In data set [22], this compound returned a logP of -1.13.
As for `CC(=O)OC[C@H]1O[C@@H](S[C@H]2CC(=O)[C@@H]3OC[C@H]2O3)[C@H](OC(C)=O)[C@@H](OC(C)=O)[C@@H]1OC(C)=O`, the IC50 in data set [1] came to 119 µM; in data set [2] it was 91.4 µM; in data set [3], 47.1 µM; in data set [4], 166 µM. Besides, the Activity in data set [5] turned out to be 10%; in [25] it was 27.55%; in [26] it was 30.3%; in [29], 23.6%; in data set [30], 24.2%; in [32] it was 36.9%. Further, the results for the Activity in data set [16], in data set [35] and in [36] were 31.25%, 20% and 36.9%, respectively. The viability at 17 µM in data set [23] was 72.5%. In addition, the viability at 137 µM in data set [24] came out at 69.7%. The viability at 8.6 µM in data set [27] is 76.4%; in [33], 80%. Further, the viability at 69 µM in [28] came out at 75.8%; in data set [34], 63.1%. Further, the viability at 4.3 µM in data set [31] turned out to be 63.1%. The viability at 34 µM in data set [14] worked out at 68.8%. In [22], this compound returned a logP of -1.13.
